Broadly, the IC50 is the point on the concentration scale where inhibition reaches its midpoint.

Structures can show the parent of a compound that is named as a salt.

The subject of one assay is p-MAPKAPK2. The assay is described as follows: Inhibition of p-MAPKAPK2 in vitro, anisomycin-stimulated RAW 264.7 cells, ELISA. The class given is cell-based, murine. To be noted: Mus musculus, RAW264.7; RAW 264.7 cells, 2 hours compound, anisomicin 100 ug/ml 30 minutes; read-out: IC50, inhibition of p-MAPKAPK2 in vitro. How it is done: RAW 264.7 cells (a murine monocytic/macrophage line ATCC) are seeded at a density of 50,000 cells/well in 96-well plates with RPMI-1640 medium plus 10% fetal bovine serum (FBS) and allowed to settle and adhere to the bottom of the well for 48 hours. After reaching confluence, cells are treated for 2 hours with 10 serial dilutions of different compounds. A control compound is always included. After 2 hours, anisomicin (100 ug/ml) is added and cells are incubated for 30 minutes at 37° C. under a 5% CO2 atmosphere. Then, cells are fixed and treated with hydrogen peroxide in order to remove endogenous peroxidase. Finally, plates are blocked with FBS, washed, and an ELISA assay is carried out by using an antiphospho-MAPKAPK (Thr 334, Cell Signalling, Cat # 3041) antibody and ahP-Conjugated Secondary Antibody. This reaction is detected by using FEMTO (Pierce) which is an enhanced chemiluminiscent substrate ahP that results in rapid kinetic light output and high signal intensity.
Turning to `Cc1ccc(-n2nc(C(C)(C)C)cc2NC(=O)Nc2ccc(OC3CCN(C(=O)c4ccc(Cl)s4)CC3)nc2)cc1` [Example 92, 1-(5-tert-Butyl-2-p-tolyl-2H-pyrazol-3-yl)-3-{6-[1-(5-chloro-thiophene-2-carbonyl)-piperidin-4-yloxy]-pyridin-3-yl}-urea], the IC50 came out at 16 nM.

Regarding `Cc1ccc(-n2nc(C(C)(C)C)cc2NC(=O)Nc2ccc(N3CCN(C(=O)c4c(Cl)cccc4Cl)CC3)nc2C)cc1` [Example 45, 1-(5-tert-Butyl-2-p-tolyl-2H-pyrazol-3-yl)-3-{6-[4-(2,6-dichloro-benzoyl)-piperazin-1-yl]-2-methyl-pyridin-3-yl}-urea methanesulfonate], the 50% inhibitory concentration (IC50) is 6.7 nM.

`Cc1ccc(-n2nc(C(C)(C)C)cc2NC(=O)Nc2ccc(OC3CCN(C(=O)C4(C)CC4)CC3)nc2C)cc1` [Example 77, 1-(5-tert-Butyl-2-p-tolyl-2H-pyrazol-3-yl)-3-{2-methyl-6-[1-(1-methyl-cyclopropanecarbonyl)-piperidin-4-yloxy]-pyridin-3-yl}-urea]: the IC50 worked out at 176 nM. Same read-out and setting: then `Cc1ccc(-n2nc(C(C)(C)C)cc2NC(=O)Nc2cnc(N3CCN(C(=O)C4(C)CC4)CC3)cc2C)cc1` [Example 128, 1-(5-tert-Butyl-2-p-tolyl-2H-pyrazol-3-yl)-3-{4-methyl-6-[4-(1-methyl-cyclopropanecarbonyl)-piperazin-1-yl]-pyridin-3-yl}-urea mesylate], with 286 nM.

Another assay has as its system p-MAPKAPK2. The description is as above. To be noted: Mus musculus, RAW264.7, in the presence of 100% serum. The class given is cell-based, murine.
As to `Cc1ccc(-n2nc(C3(C(F)(F)F)CC3)cc2NC(=O)Nc2ccc(N3CCN(C(=O)c4sccc4C)CC3)nc2C)cn1` [Example 113, 1-{2-Methyl-6-[4-(3-methyl-thiophene-2-carbonyl)-piperazin-1-yl]-pyridin-3-yl}-3-[2-(6-methyl-pyridin-3-yl)-5-(1-trifluoromethyl-cyclopropyl)-2H-pyrazol-3-yl]-urea mesylate], the half-inhibitory concentration (IC50) is no more than 500 nM.

As to `Cc1ccc(-n2nc(C(C)(CF)CF)cc2NC(=O)Nc2ccc(N3CCN(C(=O)c4ccccc4C)CC3)nc2C)cc1` [Example 119, 1-[5-(2-Fluoro-1-fluoromethyl-1-methyl-ethyl)-2-p-tolyl-2H-pyrazol-3-yl]-3-{2-methyl-6-[4-(2-methyl-benzoyl)-piperazin-1-yl]-pyridin-3-yl}-urea], the IC50 is no more than 500 nM.

Take `Cc1ccc(-n2nc(C3(C(F)(F)F)CC3)cc2NC(=O)Nc2ccc(N3CCN(C(=O)c4ccccc4Cl)CC3)nc2C)cn1` [Example 114, 1-{6-[4-(2-Chloro-benzoyl)-piperazin-1-yl]-2-methyl-pyridin-3-yl}-3-[2-(6-methyl-pyridin-3-yl)-5-(1-trifluoromethyl-cyclopropyl)-2H-pyrazol-3-yl]-urea mesylate]: the IC50 was no more than 500 nM. In the case of `Cc1ccc(-n2nc(C(C)(C)C)cc2NC(=O)Nc2ccc(N3CCN(C(=O)c4ccccc4Cl)CC3)nc2C)cn1` [Example 111, 1-[5-tert-Butyl-2-(6-methyl-pyridin-3-yl)-2H-pyrazol-3-yl]-3-{6-[4-(2-chloro-benzoyl)-piperazin-1-yl]-2-methyl-pyridin-3-yl}-urea mesylate], the IC50 was no more than 500 nM. Regarding `Cc1ccc(-n2nc(C3(C(F)(F)F)CC3)cc2NC(=O)Nc2ccc(N3CCN(C(=O)c4ccccc4F)CC3)nc2C)cn1` [Example 115, 1-{6-[4-(2-Fluoro-benzoyl)-piperazin-1-yl]-2-methyl-pyridin-3-yl}-3-[2-(6-methyl-pyridin-3-yl)-5-(1-trifluoromethyl-cyclopropyl)-2H-pyrazol-3-yl]-urea mesylate], the IC50 was no more than 500 nM.

Source of the values: patent publication US7652015B2, “Kinase inhibitors” (Eli Lilly and Company, priority 2006, dated 2010).
